Source: patent US12357604B2, “Topical formulations of cannabinoids and use thereof in the treatment of pain” (INMED PHARMACEUTICALS INC., priority 2017, dated 2025)
“Also recorded” adds a separate entry of the source.

Tests used:
[1] = system: masseter muscle mechanoreceptors; assay: In vivo electrophysiology: mechanical threshold of mechanoreceptors; set-up: species or system Sprague-Dawley rats; conditions: for MT of masseter muscle mechanoreceptors on co-administration of THC with CB1 or CB2 antagonist: THC 1 mg/ml with AM251 or AM630 (1:0.5 and 1:1 mg/ml), intramuscular; for MT of masseter muscle mechanoreceptors: anesthetized rats, MT at 10, 30, 60, 120 min, 6 mechanoreceptors/group
Protocol: In vivo electrophysiology recordings of single ganglion neurons that innervate the craniofacial muscles were performed to investigate the mechanism of action of peripherally injected cannabinoids. Rats (n=6/group) from the behavioral experiments were used for subsequent in vivo electrophysiological experiments. Recordings were performed at least 7 days after the behavioral experiments and experiments were conducted on the PBS-injected masseter muscles (right side) of the rats to minimize potential residual effects of the previous cannabinoid treatments.
Rats were anesthetized with isoflurane (2-2.5% in oxygen 97-98%; AErrane; Baxter) and surgically prepared for electrophysiological recording. Heart rate, blood pressure and body temperature were monitored and a trachea tube was inserted for ventilation throughout the experiment. The hair of the face was shaved and the animal's head was positioned in a stereotaxic frame.
A parylene-coated tungsten microelectrode (0.10″, 2 MΩ, A-M Systems Inc.) was lowered into the trigeminal ganglion through the brain via a small trephination in the skull. An incision was made over the neck to expose the brain stem, and the dura was removed to allow access for a stimulating electrode to contact the caudal brain stem. Mechanoreceptors innervating craniofacial muscles (masseter and temporalis) were identified by mechanical probing using a fine-tipped cotton swab. Antidromic collisions were performed to confirm projection of the muscle fiber to the caudal brain stem (16, 30).
A stimulating electrode (parylene-coated tungsten microelectrode, 0.10″, 2 MΩ, A-M Systems Inc.) was lowered into the ipsilateral caudal brainstem and a constant-current electrical stimulus (100 μs biphasic pulse, 10-90 μA, 0.5 Hz) was applied to evoke antidromic action potentials. Orthodromic action potentials were evoked by mechanical stimulation of the tissue. […] The straight line distance between the stimulating and recording electrodes was divided by the latency of the antidromic action potential to estimate conduction velocity. MT was assessed with an electronic von Frey hair (IITC Life Science) by applying mechanical stimuli at 1 min intervals for 10 min to obtain baseline threshold. After baseline measurement, treatment was administered and MT was reassessed at 10, 30, 60, and 120 minutes thereafter. At the end of the experiments, animals were euthanized with pentobarbital (Nembutal 100 mg/kg, Abbott Laboratories, Chicago, IL).
(§1) For the immunohistochemistry experiment, the frequency of expression of CB1, CB2 and TRPV1, respectively, in trigeminal ganglion neurons between NGF and vehicle-injected sides was analyzed with a paired Student's t-test. For the behavioral and electrophysiological experiments, MT from NGF and vehicle-injected sides was analyzed with a two-way repeated measures analysis of variance (ANOVA) with time and treatment as factors. Relative mechanical activation threshold (Rel MT) was calculated as 100×Post-treatment MT/Baseline MT. Post hoc Holm Sidak's multiple comparison tests were used to compare post injection mechanical thresholds between treatment groups at each time point. One-way repeated measures ANOVA on ranks was used to analyze test scores in the inverted screen tests. A probability level of 0.05 was considered significant for all tests. Error bars represented standard error of the mean.

[2] = system: NGF-induced sensitization in female rat masseter muscle; assay: Behavioral mechanical threshold (electronic von Frey) of NGF-sensitized masseter muscle; format: in vivo, Sprague-Dawley rats; conditions: for Effect on NGF-induced mechanical sensitization (masseter muscle mechanical threshold, MT): intramuscular injection 10 μl, into NGF-injected masseter 3 days after NGF, MT at 10, 30, 60, 120 min, n=6/group; for MT of contralateral masseter muscles: after intramuscular cannabinoid injection into the NGF-injected side (THC 1 mg/ml, CBD 5 mg/ml, CBN 1 mg/ml)
Text: Female (259-350 g, n=55) Sprague-Dawley rats were used for all experiments. Animals were housed in groups of two with a 12-h light/dark cycle. Food and water were given ad libitum. All animal procedures were reviewed and approved by the University of British Columbia Animal Care Committee.
Appropriate volumes of each solution were evaporated under nitrogen gas, and subsequently re-solubilized with 4% Tween 80 in isotonic saline to final concentrations used for injection.
Three days before behavioral experiments, rats received an injection of NGF (25 μg/ml, 10 μl, Sigma, St. Louis, MO) or vehicle (phosphate buffered saline, PBS, 10 μl) into the left and right masseter muscles, respectively, under brief isoflurane anesthesia. […] This is accompanied by an increase in NMDA receptor expression in peripheral trigeminal ganglion neurons with a peak at three days after injection (15). […] The masseter muscle region was shaved prior to injection and the injection sites were marked with a permanent marker for subsequent identification. The concentration of NGF was selected based on the concentration used in previous human experimental pain studies and experiments in rats (15, 24, 25, 26, 27). The investigator was blinded to the identity of the treatment groups until after all data was collected.
MT was assessed with a rigid electronic von Frey hair (IITC Life Science, Woodland Hills, CA). Before NGF injection, rats were habituated to restraint in a towel. […] The mechanical test stimulus was applied at 1 min intervals for 5 min and the average was calculated for further analysis. MT was measured daily for 5 days prior to the start of the experiment to determine that measurements were stable. MT readings recorded prior to NGF injection were used as naïve baseline. […] On the test day, a post-NGF injection baseline (NGF baseline) was recorded before injection of cannabinoid treatment groups. After treatment injections, MT was measured at 10, 30, 60, and 120 min after injection.
as §1

[3] = system: impaired motor function in rats; assay: Inverted screen test; format: in vivo, Sprague-Dawley rats; conditions: after intramuscular injection; for Impairment of motor functions in the inverted screen tests: tested at 10, 30, 60 and 120 min, n=4/group; for Inverted screen test median score: score 0 climbed to top, 1 held on upside down, 2 fell
Protocol: A modified version of the inverted screen test was performed to evaluate impaired motor function in rats (28, 29). Rats (n=4/group) were placed on a screen (185 mm×290 mm) with 5 mm diameter holes and the screen was slowly inverted 180 degrees until the rats were suspended upside down on the bottom of the screen. […] The rats were trained how to perform the test daily for three days before they were tested.
as §1

[4] = system: mental nerve ligation model; assay: Topical THC in mental nerve ligation model; format: in vivo, mice; conditions: topical THC 1% in a PLO-gel cream base
Protocol: FIG. 14 illustrates the effect of topical THC (1%) in a mental nerve ligation model. Neuropathic pain behavior was measured by observing total facial grooming in naïve and post-surgical mice after application of vehicle or THC.
FIG. 15 illustrates the effect of topical THC (1%) in a mental nerve ligation model. Neuropathic pain behavior was measured by observing mechanical threshold response in naïve and post-surgical mice after application of vehicle or THC.

CB2 = assay: Immunohistochemistry of masseter ganglion neurons after NGF injection: CB2; format: in vivo, Sprague-Dawley rats; conditions: 3 days after NGF 25 μg/ml, 10 μl; saline side 47±5%; n=5 rats
Protocol: (§2) To identify trigeminal ganglion neurons that innervate the masseter muscle, the fluorescent tracer dye Fast Blue (2%, Polysciences, Warrington, PA) was injected bilaterally into the masseter muscles of rats (n=5),7 days prior to euthanization. NGF (25 μg/ml, 10 μI, Sigma, St. Louis, MO) or vehicle (phosphate buffered saline, PBS, 10 μI) was injected into the left and right masseter muscles, respectively, three days before euthanization. Under deep isoflurane anesthesia, animals were perfused with 120 ml cold saline followed by 120 ml of paraformaldehyde (4%). Trigeminal ganglia and masseter muscles were removed, incubated in 20% and then 40% sucrose for 48h each to cryoprotect the tissue, and cut into 10 μm sections with a cryotome. […] Fast Blue positive cells were counted and photographed for estimation of cell diameter. […]
(§3) For the immunohistochemistry experiment, the frequency of expression of CB1, CB2 and TRPV1, respectively, in trigeminal ganglion neurons between NGF and vehicle-injected sides was analyzed with a paired Student's t-test. For the behavioral and electrophysiological experiments, MT from NGF and vehicle-injected sides was analyzed with a two-way repeated measures analysis of variance (ANOVA) with time and treatment as factors. Relative mechanical activation threshold (Rel MT) was calculated as 100×Post-treatment MT/Baseline MT. […]

CB1 = assay: Immunohistochemistry of masseter ganglion neurons after NGF injection: CB1; format: in vivo, Sprague-Dawley rats; conditions: 3 days after NGF 25 μg/ml, 10 μl; saline side 52±3%; n=5 rats
Protocol: as §2, §3

TRPV1 = assay: Immunohistochemistry of masseter ganglion neurons after NGF injection: TRPV1; format: in vivo, Sprague-Dawley rats; conditions: 3 days after NGF 25 μg/ml, 10 μl; n=5 rats
Protocol: as §2, §3

[5] = intramuscular injection 1 mg/ml

Molecule: Cc1c(C(=O)NN2CCCCC2)nn(-c2ccc(Cl)cc2Cl)c1-c1ccc(I)cc1 [AM251, 1-(2,4-dichlorophenyl)-5-(4-iodophenyl)-4-methyl-N-1-piperidinyl-1H-pyrazole-3-carboxamide]
- MT of masseter muscle mechanoreceptors on co-administration of THC with CB1 or CB2 antagonist [1]: attenuated the increase in MT mediated by THC alone

Molecule: COc1ccc(C(=O)c2c(C)n(CCN3CCOCC3)c3cc(I)ccc23)cc1 [AM630, [6-iodo-2-methyl-1-[2-(4-morpholinyl)ethyl]-1H-indol-3-yl](4-methoxyphenyl)-methanone]
- MT of masseter muscle mechanoreceptors on co-administration of THC with CB1 or CB2 antagonist [1]: not different from THC alone

Molecule: CCCCCc1cc(O)c2c(c1)OC(C)(CCC=C(C)C)C=C2 (centres unmarked) [CBC, Cannabichromene]
- Effect on NGF-induced mechanical sensitization (masseter muscle mechanical threshold, MT) ([2]; 1 mg/ml): No effect on MT
- Impairment of motor functions in the inverted screen tests [3]: No impairment of motor functions
- Inverted screen test median score [3]: 0

Molecule: C=C(C)C1CCC(C)=CC1c1c(O)cc(CCCCC)cc1O (centres unmarked) [CBD, 2-(6-isopropenyl-3-methyl-2-cyclohexen-1-yl)-5-pentyl-1,3-benzenediol]
- MT of contralateral masseter muscles [2]: No change in mechanical threshold
- Effect on NGF-induced mechanical sensitization (masseter muscle mechanical threshold, MT) ([2]; 1 mg/ml): had no effect on NGF-induced mechanical sensitization
- Effect on NGF-induced mechanical sensitization (masseter muscle mechanical threshold, MT) ([2]; 5 mg/ml): significantly reversed NGF-induced sensitization at 10 and 30 min after injection; also recorded: Significant differences
- MT of masseter muscle mechanoreceptors [1, 5]: not 1 mg/ml, significantly increased MT
- MT of masseter muscle mechanoreceptors ([1]; intramuscular injection 5 mg/ml): significantly increased MT, 30 min after injection; also recorded: Significant differences
- Impairment of motor functions in the inverted screen tests [3]: No impairment of motor functions
- Inverted screen test median score [3]: 0

Molecule: CCCCCc1cc(O)c2c(c1)OC(C)(C)c1ccc(C)cc1-2 [CBN, 6,6,9-trimethyl-3-pentylbenzo[c]chromen-1-ol]
- MT of contralateral masseter muscles [2]: No change in mechanical threshold
- Effect on NGF-induced mechanical sensitization (masseter muscle mechanical threshold, MT) ([2]; 1 mg/ml): significant increase in MT at 10 min after injection compared to NGF baseline; also recorded: Significant differences
- Area under the curve (AUC) analysis of the electrophysiological data ([1]; AUC of MT data of FIGS. 9-12, compared to the other indicated treatments): reduction in pain response
- MT of masseter muscle mechanoreceptors [1, 5]: significantly increased MT at 30 and 60 min after injection; also recorded: Significant differences
- Impairment of motor functions in the inverted screen tests [3]: No impairment of motor functions
- Inverted screen test median score [3]: 0

Molecule: CCCCCc1cc(O)c2c(c1)OC(C)(C)[C@@H]1CCC(C)=C[C@@H]21 [THC, delta-9-tetrahydrocannabinol]
- Mechanical allodynia in the lower lip skin (mechanical threshold response) [4]: reversed mechanical allodynia
- Neuropathic pain behavior (facial grooming) [4]: reduced neuropathic pain behavior
- MT of contralateral masseter muscles [2]: No change in mechanical threshold
- Effect on NGF-induced mechanical sensitization (masseter muscle mechanical threshold, MT) ([2]; 1 mg/ml): significantly reversed NGF-induced sensitization at 10 and 30 min after injection; also recorded: Significant differences
- MT of masseter muscle mechanoreceptors [1, 5]: significantly increased the MT of mechanoreceptors at 10, 30 and 60 min after injection; also recorded: Significant differences
- Impairment of motor functions in the inverted screen tests [3]: No impairment of motor functions
- Inverted screen test median score [3]: 0

B1: NGF: nerve growth factor (Sigma) injected into masseter muscle to induce mechanical sensitization (protein, UniProt P01139 122-241, looked up)
Beta-nerve growth factor: SSTHPVFHMGEFSVCDSVSVWVGDKTTATDIKGKEVTVLAEVNINNSVFRQYFFETKCRASNPVESGCRGIDSKHWNSYCTTTHTFVKALTTDEKQAAWRFIRIDTACVCVLSRKATRRG
- Decrease of masseter muscle MT ([2]; 3 days after intramuscular injection of NGF 25 μg/ml, 10 μl): 31%
- Frequency of expression of CB2 in masseter ganglion neurons, NGF-injected side (CB2): 33±6%
- Frequency of expression of CB1 in masseter ganglion neurons, NGF-injected side (CB1): 39±3%
- Effect on TRPV1 expression in masseter ganglion neurons (TRPV1): No significant effect
